According to PMC9699072 (Molecules, 2022):
Where “and” joins values, the source holds several entries; their conditions need not be identical. Identical values can stand only once.

How the values were obtained:
Type in all cases: biochemical
human erythrocyte AChE = target: T1, human erythrocyte AChE (Homo sapiens, UniProt P22303); experiment: Inhibition of AChE (Ellman's colorimetric assay); settings: read-out: AChE % inhibition at 20 μM
T1 construct: Human erythrocyte acetylcholinesterase (AChE, EC 3.1.1.7); purchased Sigma-Aldrich (Saint Louis, MO, USA); host or cells: human erythrocytes
T1 sequence (P22303 32-617 isoform P22303-2 limits assumed): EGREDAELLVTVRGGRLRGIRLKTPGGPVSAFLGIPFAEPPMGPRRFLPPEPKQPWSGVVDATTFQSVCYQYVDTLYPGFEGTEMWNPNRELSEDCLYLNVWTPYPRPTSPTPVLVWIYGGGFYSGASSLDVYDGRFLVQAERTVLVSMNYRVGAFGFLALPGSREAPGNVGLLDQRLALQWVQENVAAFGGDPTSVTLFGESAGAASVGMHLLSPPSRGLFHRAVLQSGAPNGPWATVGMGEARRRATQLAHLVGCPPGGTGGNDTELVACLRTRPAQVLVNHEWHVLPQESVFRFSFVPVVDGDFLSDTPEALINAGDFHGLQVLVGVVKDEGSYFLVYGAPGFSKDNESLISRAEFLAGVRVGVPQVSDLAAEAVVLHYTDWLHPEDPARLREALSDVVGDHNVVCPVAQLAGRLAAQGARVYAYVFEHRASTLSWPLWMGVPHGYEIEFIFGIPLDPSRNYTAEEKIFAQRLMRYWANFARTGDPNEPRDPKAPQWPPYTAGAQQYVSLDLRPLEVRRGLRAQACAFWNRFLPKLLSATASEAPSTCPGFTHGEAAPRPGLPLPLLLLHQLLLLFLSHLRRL
Excerpt: (§1) Given the available literature data on the ability of pyrazole derivatives to inhibit acetylcholinesterase (AChE) and human carboxylesterase-1 (CES), we performed an investigation of the esterase profile for new compounds 1a–j and 4a–j, including an evaluation of their inhibitory effect on the standard enzymes set: human erythrocyte AChE, equine serum butyrylcholinesterase (BChE), and porcine liver CES (Table 2). The applicability of this set of enzymes was shown by us earlier.
(§2) Human erythrocyte acetylcholinesterase (AChE, EC 3.1.1.7), equine serum butyrylcholinesterase (BChE, EC 3.1.1.8), porcine liver carboxylesterase (CES, EC 3.1.1.1), acetylthiocholine iodide (ATCh), butyrylthiocholine iodide (BTCh), 4-nitrophenol acetate (4-NPA), and 5,5′-dithio-bis-(2-nitrobenzoic acid) (DTNB) were purchased from Sigma-Aldrich (Saint Louis, MO, USA).
(§3) All the kinetic experiments were performed under standard conditions, according to the protocol of IPAC RAS for a reversible inhibitors study.
(§4) Ellman’s colorimetric assay was used to measure AChE and BChE activity in 0.1 M K/Na phosphate buffer at pH 7.5, 25 °C [86]. Final concentrations of reactants were 0.33 mM DTNB, 0.02 unit/mL of AChE or BChE, and 1 mM of substrate (ATCh or BTCh, respectively). Reagent blanks consisted of reaction mixtures without enzyme to assess non-enzymatic hydrolysis of substrates. Porcine liver CES activity was assessed colorimetrically in 0.1 M K/Na phosphate buffer with pH 8.0 at 25 °C, by measuring the absorbance of 4-nitrophenol at 405 nm. Final enzyme and substrate (4-NPA) concentrations were 0.02 unit/mL and 1 mM, respectively. Reagent blanks included all constituents except enzyme.
(§5) Test compounds were dissolved in DMSO. Reaction mixtures contained a final DMSO concentration of 2% (v/v). Enzyme inhibition was first assessed at a single concentration of 20 µM for each compound after a 10 min incubation at 25 °C in three separate experiments. Compounds inhibiting the enzyme by more than 30% were then selected for determination of the IC50 (inhibitor concentration resulting in 50% inhibition of control enzyme activity). […] Substrate was then added, and residual enzyme activity relative to an inhibitor-free control was measured using a FLUOStar Optima microplate reader (LabTech, Ortenberg, Germany).

porcine liver CES = experiment: Inhibition of CES (4-nitrophenol acetate hydrolysis); settings: 20 μM, ± SEM, n = 3, 10 min incubation 25 °C
Excerpt: as §1, §2, §3, §4, §5

[1] = ABTS radical cation scavenging (decolorization) assay; settings: mean ± SEM, n = 3; for ABTS TEAC (Trolox equivalent antioxidant capacity): 1 h incubation, relative to Trolox; for IC50: 1 h, read-out: ABTS IC50 (compound concentration required for 50% reduction of the ABTS radical-cation) (converted)
Method: The ABTS assay is based on the direct quenching of the ABTS cation radical (ABTS^•+) by antioxidants. The assay is carried out by spectrophotometric determination of a decrease in absorbance of a stable dark green ABTS^•+ solution after its interaction with an antioxidant compound [56]. The measurements were performed as previously described in detail. The results are expressed as TEAC values (Trolox equivalent antioxidant capacity) and IC50 values (compound concentration required for 50% reduction of the ABTS radical).
Radical scavenging activity of the compounds was assessed using the ABTS radical cation (ABTS^•+) decolorization assay with some modifications. ABTS (2,2′-azinobis-(3-ethylbenzothiazoline-6-sulfonic acid)) was purchased from Tokyo Chemical Industry Co., Ltd. (Tokyo, Japan), and potassium persulfate (dipotassium peroxodisulfate), Trolox (6-hydroxy-2,5,7,8-tetramethylchroman-2-carboxylic acid), and HPLC-grade ethanol and DMSO were obtained from Sigma-Aldrich (Saint Louis, MO, USA). Aqueous solutions were prepared using deionized water. All test compounds were dissolved in DMSO.
The solution of cation radical ABTS^•+ was produced by incubation of an aqueous solution of 7 mM ABTS and 2.45 mM potassium persulfate solution in equal quantities for 12–16 h at room temperature in the dark. Radical scavenging capacity of the compounds was analyzed by mixing 10 μL of compound with 240 μL of ABTS^•+ working solution in ethanol (100 μM final concentration). Data were given for 1 h of incubation of compounds with ABTS^•+. The reduction in absorbance was measured spectrophotometrically at 734 nm using an xMark microplate UV/VIS microplate spectrophotometer (Bio-Rad, Hercules, CA, USA).
Ethanol blanks were run in each assay. Values were obtained from three replicates of each sample and three independent experiments.
Standard antioxidant Trolox was used as a reference compound. Antioxidant capacity as Trolox equivalent (TEAC) values was determined as the ratio between the slopes obtained from the linear correlation of the ABTS radical absorbance with the concentrations of tested compounds and Trolox. Quercetin was used as a positive control. For the test compounds that reduced ABTS^•+ absorbance by more than 60% at 100 µM, we also determined the IC50 values (the compound concentration required for a 50% reduction of the ABTS radical). The compounds were tested in the concentration range of 0.5–400 µM.

[2] = ORAC-FL (oxygen radical absorbance capacity) assay; settings: mean ± SEM, n = 3; 2 h; 10 μM compound and Trolox
Excerpt: In the oxygen radical absorbance capacity (ORAC-FL) assay, 2,2′-azobis-(2-methylpropionamidine) dihydrochloride (AAPH) is used as a free peroxyl radical generator, and fluorescein (FL) is used as a fluorescent probe. The method is based on measuring the decrease in the intensity of fluorescence with time, which characterizes the degree of decay of the fluorescent probe under the influence of peroxyl radicals. In the presence of antioxidants, the degree of decay of the fluorescent probe decreases and, accordingly, the fluorescence intensity increases. The results are expressed as TE (Trolox equivalents).
The ORAC assay utilizes a biologically relevant radical source, 2,2′-azobis(2-amidinopropane) dihydrochloride (AAPH)-derived peroxyl radicals. Thus, it is a more physiologically relevant assay than ABTS and FRAP.
The oxygen radical absorbance capacity (ORAC) was determined by the ability of compounds to protect fluorescein (FL) from peroxyl radicals that are generated by AAPH according to the known method with minor variations. The reaction was carried out at 37 °C in black 96-well plates (SPL life sciences), and the final volume of the reaction mixture was 200 µL per well. The fluorescence was recorded by Tecan M1000 PRO microplate reader (Switzerland) at 485 nm excitation and 520 nm emission.
The 0.7 mM fluorescein sodium salt stock solution in PBS pH 7.4 (137 mM sodium chloride, 2.7 mM potassium chloride, and 10 mM phosphate buffer) was prepared and stored at 4–5 °C no longer than one month. An aliquot of the fluorescein stock solution was further diluted with PBS immediately before each assay to yield a 70 nM working solution. The 133 mM AAPH solution in PBS was prepared immediately before use. The test compounds and Trolox standard were dissolved in DMSO to 400 μM. The final concentration was 10 μM for all of the samples.
The blank was composed of 15 μL PBS pH 7.4, 5 μL DMSO (final concentration: 2.5% (v/v)), 120 μL FL, and 60 μL AAPH, and it was included in each assay. PBS pH 7.4 (15 μL), antioxidant (the test compound or Trolox, 5 μL), and FL (120 μL, final concentration: 42 nM) solutions were placed in a black 96-well microplate and were pre-incubated for 15 min at 37 °C. AAPH solution (60 μL, final concentration 40 mM) was then added rapidly using a multichannel pipette. The fluorescence was recorded every minute for 2 h. A Trolox standard curve was also obtained in each assay. All reactions were carried out in quadruplicate, and two to four independent assays were performed for each sample.
Antioxidant curves (fluorescence vs. time) were first normalized to the curve of the blank (without antioxidant) corresponding to the same assay, and the net AUC corresponding to a sample was calculated by subtracting the AUC corresponding to the blank. The ORAC value was obtained by dividing the latter curve by the Trolox curve obtained in the same assay at 10 μM concentrations of compounds and Trolox. Final ORAC values, Trolox equivalents (TE), were expressed as μmol test compounds per μmol Trolox, where the value of TE for Trolox was taken as 1. Data were expressed as means ± SEM.

[3] = FRAP (ferric reducing antioxidant power) assay; settings: mean ± SEM, n = 3; 1 h, 37 °C, pH 3.6
Method: The FRAP (ferric reducing antioxidant power) assay measures the ability of antioxidants to reduce the ferric 2,4,6-tripyridyl-s-triazine complex [Fe(TPTZ)2]^3+ to the intensely blue ferrous complex [Fe(TPTZ)2]^2+ in an acidic medium. The measurements were performed as previously described in detail. The results are expressed as TE (Trolox equivalents).
The FRAP (ferric reducing antioxidant power) assay measures the ability of antioxidants to reduce the ferric 2,4,6-tripyridyl-s-triazine complex [Fe (TPTZ)2]^3+ to the intensely blue ferrous complex [Fe (TPTZ)2]^2+ (λ = 593 nm) in acidic medium. 2,4,6-Tris(pyridin-2-yl)-1,3,5-triazine (TPTZ), FeCl3·6H2O, Trolox, quercetin and DMSO were obtained from Sigma-Aldrich Chemical Co. (St. Louis, MO, USA). The FRAP reagent contained 2.5 mL of 10 mM TPTZ solution in 40 mM HCl, 2.5 mL of 20 mM FeCl3·6H2O water solution, and 25 mL of 0.3 M acetate buffer (pH 3.6). Aliquots of 10 µL of the test compound solution in DMSO (0.5 mM) were mixed with 240 µL of FRAP reagent, and the absorbance of the mixture was measured spectrophotometrically (FLUOStar OPTIMA microplate spectrophotometer (BMG Labtech, Ortenberg, Germany)) at 600 nm after 1 h incubation at 37 °C against a blank. Trolox was used as a reference compound. Quercetin was used as a positive control. A calibration curve with linear formula y = 0.03x (R^2 = 0.998, p < 0.0001) was prepared for Trolox solutions in DMSO at a range of 2.5–100 µM, and the results are expressed as Trolox equivalents (TE), the values calculated as the ratio of the concentrations of Trolox and the test compound, resulting in the same effect.

[4] = ORAC-FL (oxygen radical absorbance capacity) assay; settings: mean ± SEM, n = 3; 2 h; read-out: ORAC-FL IC50 (compound concentration required for 50% reduction of peroxyl radical) (converted)
[5] = target: T2, equine serum butyrylcholinesterase (BChE) (Equus caballus, UniProt P81908); experiment: Inhibition of BChE (Ellman's colorimetric assay); settings: ± SEM, n = 3, 10 min incubation 25 °C
T2 construct: equine serum butyrylcholinesterase (BChE, EC 3.1.1.8); purchased Sigma-Aldrich (Saint Louis, MO, USA); host or cells: equine serum
T2 sequence (P81908 whole entry): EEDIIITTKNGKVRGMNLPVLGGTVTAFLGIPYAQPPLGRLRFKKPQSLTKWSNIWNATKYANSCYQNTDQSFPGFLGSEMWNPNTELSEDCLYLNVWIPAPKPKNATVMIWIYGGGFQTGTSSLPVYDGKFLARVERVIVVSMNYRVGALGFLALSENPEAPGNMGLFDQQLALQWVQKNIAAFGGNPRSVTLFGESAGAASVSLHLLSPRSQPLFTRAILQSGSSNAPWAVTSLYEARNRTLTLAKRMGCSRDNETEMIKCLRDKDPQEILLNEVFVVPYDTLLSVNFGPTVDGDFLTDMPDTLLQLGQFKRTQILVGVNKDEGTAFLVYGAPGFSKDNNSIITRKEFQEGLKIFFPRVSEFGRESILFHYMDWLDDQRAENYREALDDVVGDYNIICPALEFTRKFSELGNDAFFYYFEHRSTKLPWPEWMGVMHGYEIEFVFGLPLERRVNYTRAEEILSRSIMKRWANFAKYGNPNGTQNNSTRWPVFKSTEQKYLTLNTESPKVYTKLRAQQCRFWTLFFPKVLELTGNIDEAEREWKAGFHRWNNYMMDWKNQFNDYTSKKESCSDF
Excerpt: as §1, §2, §3, §4, §5

SMILES | inhibition at 20 µM (human erythrocyte AChE) [%] | CES % inhibition at 20 μM (porcine liver CES) [%] | ABTS TEAC (Trolox equivalent antioxidant capacity) [1] | ORAC-FL TE (Trolox equivalent) [2] | FRAP TE (Trolox equivalent) [3] [TE] | IC50 [1] [µM] | IC50 [4] [µM] | inhibition at 20 µM [5] [%]
O=C1NN=C(C(F)(F)C(F)(F)C(F)(F)F)/C1=N/O [1h] | 5.3 ± 1.3 | 6.6 ± 1.4 | 0.19 ± 0.008 (n.d.) TEAC | 2.37 ± 0.09 TE |  |  |  | 
Cc1c(C)c2c(c(C)c1O)CCC(C)(C(=O)O)O2 (stereo not drawn) [Trolox, 6-hydroxy-2,5,7,8-tetramethylchroman-2-carboxylic acid, reference compound] |  |  | 1.0 TEAC | 1.0 TE | 1.0 | 20.1 | 23.6 | 
CC1=NN(c2ccccc2)C(=O)/C1=N\O [1d] | 4.9 ± 1.3 |  | 0.16 ± 0.02 (n.d.) TEAC | 1.07 TE and 1.07 ± 0.17 TE |  |  |  | 6.6 ± 1.3
O=C1/C(=N\O)C(C(F)(F)C(F)(F)F)=NN1c1ccccc1 [1b] | 11.9 ± 0.9 | 8.2 ± 1.3 | 0.03 ± 0.002 (n.d.) TEAC |  | 0.06 ± 0.01 |  |  | 16.1 ± 1.4
Cl.Nc1c(C(F)(F)C(F)F)n[nH]c1O.O [4f, 4-Amino-3-(1,1,2,2-tetrafluoroethyl)-1H-pyrazol-5-ol hydrate hydrochloride] | 17.3 ± 1.5 | 17.5 ± 1.4 | 0.50 ± 0.02 TEAC |  | 0.62 ± 0.01 | 33.2 |  | 
O=C1/C(=N\O)C(C(F)(F)F)=NN1c1ccccc1 [1a] |  |  | 0.035 ± 0.002 (n.d.) TEAC |  |  |  |  | 
O=C1/C(=N\O)C(C(F)(F)C(F)(F)C(F)(F)C(F)(F)F)=NN1c1ccccc1 [1c] | 11.5 ± 1.8 | 7.8 ± 1.4 | 0.04 ± 0.004 (n.d.) TEAC |  | 0.06 ± 0.01 |  |  | 5.3 ± 1
O=C1NN=C(C(F)(F)C(F)F)/C1=N/O [1f] | 6.8 ± 1.2 | 3.5 ± 0.9 | 0.15 ± 0.007 (n.d.) TEAC |  |  |  |  | 4.7 ± 1
O=c1c(O)c(-c2ccc(O)c(O)c2)oc2cc(O)cc(O)c12 [Quercetin, reference compound] |  |  | 1.20 ± 0.11 TEAC | 5.41 ± 0.08 TE | 4.99 ± 0.02 | 13.8 |  | 
O=C1NN=C(C(F)(F)C(F)(F)C(F)(F)C(F)(F)F)/C1=N/O [1i] |  |  | 0.2 ± 0.01 (n.d.) TEAC | 2.41 ± 0.08 TE |  |  |  | 
